From US8119614B2, “Substitution derivatives of N6-benzyladenosine, methods of their preparation, their use for preparation of drugs, cosmetic preparations and growth regulators, pharmaceutical preparations, cosmetic preparations and growth regulators containing these compounds” (Ustav Experimentalni Botaniky Akademie Ved Ceske Republiky, priority 2002, dated 2012)

Tests used:
[1] = test system: breast carcinoma cell lines MCF-7; test: In vitro cytotoxic activity, Calcein AM assay, MCF7; type: cell-based, human; conditions: 72 hours, read-out: IC 50 MCF7
Description: (§1) One of the parameters used, as the basis for cytotoxicity assays, is the metabolic activity of viable cells. For example, a microtiter assay, which uses the Calcein AM, is now widely used to quantitate cell proliferation and cytotoxicity. For instance, this assay is used in drug screening programs and in chemosensitivity testing. Because only metabolically active cells cleave Calcein AM, these assays detect viable cells exclusively. The quantity of reduced Calcein AM corresponds to the number of vital cells in the culture.
(§2) Human T-lymphoblastic leukemia cell line CEM; promyelocytic HL-60 and monocytic U937 leukemias; breast carcinoma cell lines MCF-7; cervical carcinoma cells HELA; mouse fibroblasts NIH3T3; human erythroleukaemia K562 and human malignant melanoma cells G361 were used for routine screening of compounds. The cells were maintained in Nunc/Corning 80 cm^2 plastic tissue culture flasks and cultured in cell culture medium (DMEM with 5 g/l glucose, 2 mM glutamine, 100 U/ml penicillin, 100 μg/ml streptomycin, 10% fetal calf serum and sodium bicarbonate).
(§3) The cell suspensions that were prepared and diluted according to the particular cell type and the expected target cell density (10^4 cells per well based on cell growth characteristics) were added by pipette (80 μl) into 96/well microtiter plates. Inoculates were allowed a pre-incubation period of 24 hours at 37° C. and 5% CO2 for stabilisation. Four-fold dilutions of the intended test concentration were added at time zero in 20 μl aliquots to the microtiter plate wells. Usually, test compound was evaluated at six 4-fold dilutions. In routine testing, the highest well concentration was 166.7 μM, but it can be the matter of change dependent on the agent. All drug concentrations were examined in duplicates. Incubations of cells with the test compounds lasted for 72 hours at 37° C., in 5% CO2 atmosphere and 100% humidity. At the end of incubation period, the cells were assayed by using the Calcein AM. Ten microliters of the stock solution were pipetted into each well and incubated further for 1 hours. Fluorescence (FD) was measured with the Labsystem FIA Reader Fluoroscan Ascent (UK). The tumour cell survival (GI50) was calculated using the following equitation: GI50=(FDdrug exposed well/mean FDcontrol wells)×100%. The GI50 value, the drug concentration lethal to 50% of the tumour cells, was calculated from the obtained dose response curves (FIG. 3).

[2] = test system: human malignant melanoma cells G361; test: In vitro cytotoxic activity, Calcein AM assay, G-361; type: cell-based; conditions: 72 hours, read-out: IC 50 G-361
Description: as §1, §2, §3

[3] = test system: mouse fibroblasts NIH3T3; test: In vitro cytotoxic activity, Calcein AM assay, NIH-3T3; type: cell-based; conditions: 72 hours, read-out: IC 50 NIH-3T3
Description: as §1, §2, §3

[4] = test system: Human T-lymphoblastic leukemia cell line CEM; test: In vitro cytotoxic activity, Calcein AM assay, CEM; type: cell-based; conditions: 72 hours
Description: as §1, §2, §3

[5] = test system: HOS; test: In vitro cytotoxic activity, Calcein AM assay, HOS; type: cell-based; conditions: 72 hours
[6] = test system: human erythroleukaemia K562; test: In vitro cytotoxic activity, Calcein AM assay, K-562; type: cell-based; conditions: 72 hours, read-out: IC 50 K-562
Description: as §1, §2, §3

[7] = test system: promyelocytic HL-60; test: In vitro cytotoxic activity, Calcein AM assay, HL60; type: cell-based, human; conditions: 72 hours, read-out: IC 50 HL60
Description: as §1, §2, §3

[8] = test system: Triticum aestivum cv. Hereward; test: Senescence inhibition on winter wheat leaf segments (chlorophyll retention); type: in vivo; conditions: for Concentration with highest activity: chlorophyll retention in excised wheat leaf tips, 96 h dark; for Activity (%) [10^−4 mol · l^−1 BAP = 100%]: chlorophyll retention, at concentration with highest activity
Description: Seeds of winter wheat, Triticum aestivum cv. Hereward, were washed under running water for 24 hours and then sown on vermiculite soaked with Knop's solution. They were placed in the grown chamber at 15° C. with a 16/8 h light period at 50 μmol·m^−2·s^−1. After 7 days, the first leaf was fully developed and the second leaf had started to grow. A tip section of the first leaf, approximately 35 mm long, was removed from 5 seedlings and trimmed slightly to a combined weight of 100 mg. The basal ends of the five leaf tips were placed in the wells of a microtiter polystyrene plate containing 150 μl of a cytokinin solution each. The entire plate was inserted into a plastic box lined with paper tissues soaked in distilled water to prevent leaf sections from drying out. After a 96 h incubation in the dark at 25° C., the leaves were removed and chlorophyll extracted by heating at 80° C. for 10 min in 5 ml of 80% ethanol (v/v). The sample volume was then restored to 5 ml by the addition of 80% ethanol (v/v). The absorbency of the extract was recorded at 665 nm. In addition, chlorophyll extracts from fresh leaves and leaf tips incubated in deionised water were measured. From the obtained data, the concentration with highest activity was selected for each compound tested. Relative activity of the compound at this concentration was calculated (Tab. 10). The activity obtained for 10^−4 M 6-benzylaminopurine (BAP) was postulated as 100%. The values shown are means of five replicates and the whole experiment was repeated twice. The cytokinins to be tested were dissolved in dimethylsulfoxide (DMSO) and the solution brought up to 10^−3M with distilled water. This stock was further diluted in distilled water to concentrations ranging from 10^−8M to 10^−4M.

[9] = test system: Amaranthus caudatus cotyledon/hypocotyl explants; test: Amaranthus bioassay (betacyanin content); type: in vivo; conditions: for Concentration with highest activity: 48 h dark; for Activity (%) [10^−5 mol · l^−1 BAP = 100%]: at concentration with highest activity
Description: Standard Amaranthus bioassay was performed with several modifications. The seeds of Amaranthus caudatus var. atropurpurea were surface-sterilised in 10% N-chlorobenzenesulfonamide (w/v) for 10 min and washed 5 times in deionized water. They were placed in 15 cm Petri dishes containing paper tissues saturated with deionized water. After 72 h of cultivation at 25° C. in darkness, the roots of the seedlings were cut off. The explants, consisting of two cotyledons and hypocotyls, were placed in 5 cm Petri dishes on two layers of filter paper soaked in 1 ml of incubation medium containing 10 μmol NA2HPO4-KH2PO4, pH 6.8, 5 μmol tyrosine and the cytokinin to be tested. There were 20 explants per dish. The procedure was carried out under a green safe light in a darkroom. After a 48 h of incubation at 25° C. in darkness, betacyanin was extracted by freezing the explants in 4 ml […] acetic acid. The concentration of betacyanin was determined by comparing the absorbance at 537 nm and 620 nm as follows: ΔA=[…]-[…]. From the obtained data, the concentration with highest activity was selected for each compound tested. Relative activity of the compound at this concentration was calculated (Tab. 12). […] The values shown in table 8 are means of five replicates and the entire test was repeated twice. The cytokinins to be tested were dissolved in dimethylsulfoxide (DMSO) and the solution brought up to 10^-3M with distilled water. This stock was further diluted in the respective media used for the biotest to concentrations ranging from 10^-8M to 10^-4M. […] From the data obtained (FIG. 14) the maximum effective concentration of the tested compound was calculated as well as its relative effectiveness at this concentration (Table 12). […]

[10] = test system: tobacco callus Nicotiana tabacum L. cv. Wisconsin 38; test: Growth of cytokinin-dependent tobacco callus; type: cell-based; conditions: for Activity (%) [10^−5 mol · l^−1 BAP = 100%]: callus growth, at concentration with highest activity; for Concentration with highest activity: fresh callus weight after four weeks
Description: Cytokinin-dependent tobacco callus Nicotiana tabacum L. cv. Wisconsin 38 was maintained at 25° C. in darkness on modified Murashige-Skoog medium, containing per 1 liter: 4 μmol nicotinic acid, 2.4 μmol pyridoxine hydrochloride, 1.2 μmol thiamine, 26.6 μmol glycine, 1.37 μmol glutamine, 1.8 μmol myo-inositol, 30 g of sucrose, 8 g of agar, 5.37 μmol α-naphtylacetic acid (NAA) and 0.5 μmol benzylaminopurine (BAP). Subcultivation was carried out every three weeks. Fourteen days before the bioassay, the callus tissue was transferred to the media without 6-benzylaminopurine (BAP). Biological activity was determined from the increase in fresh callus weight after four weeks of cultivation. Five replicates were prepared for each cytokinin concentration and the entire test was repeated twice. From the obtained data, the concentration with highest activity was selected for each compound tested. Relative activity of the compound at this concentration was calculated (Tab. 6). […] The cytokinins to be tested were dissolved in dimethylsulfoxide (DMSO) and the solution brought up to 10^−3M with distilled water. This stock was further diluted in the respective media used for the biotest to concentrations ranging from 10^−8M to 10^−4M.

SMILES	IC50 [1]	IC50 [2]	IC50 [3]	IC50 [4]	IC50 [5]	IC50 [6]	IC50 [7]	Concentration with highest activity [8]	Activity (%) [10^−4 mol · l^−1 BAP = 100%] [8]	Concentration with highest activity [9]	Activity (%) [10^−5 mol · l^−1 BAP = 100%] [9]	Activity (%) [10^−5 mol · l^−1 BAP = 100%] [10]	Concentration with highest activity [10]
COc1ccc(O)c(CNc2ncnc3c2ncn3[C@@H]2O[C@H](CO)[C@@H](O)[C@H]2O)c1 [2-hydroxy-5-methoxybenzylamino, 6-(2-hydroxy-5-methoxybenzylamino)purine riboside]	21 µM	102 µM	> 167 µM	0.2 µM	> 167 µM	15.4 µM	0.1 µM						
OC[C@H]1O[C@@H](n2cnc3c(NCc4ccc(F)c(Cl)c4)ncnc32)[C@H](O)[C@@H]1O [3-chloro-4-fluorobenzylamino, 6-(3-chloro-4-fluorobenzylamino)purine riboside]	> 167 µM		> 167 µM	3.4 µM	> 167 µM	4.1 µM	3.5 µM	10^−4 mol · l^−1	156 ± 10%	10^−4 mol · l^−1	82 ± 5%	87 ± 4%	10^−6 mol · l^−1
OC[C@H]1O[C@@H](n2cnc3c(NCc4ccc(Br)cc4)ncnc32)[C@H](O)[C@@H]1O [4-bromobenzylamino, 6-(4-bromobenzylamino)purine riboside]	> 167 µM		> 167 µM	20.6 µM	> 167 µM	68.2 µM	47.4 µM	10^−4 mol · l^−1	76 ± 11%	10^−5 mol · l^−1	30 ± 8%	15 ± 11%	10^−6 mol · l^−1
OC[C@H]1O[C@@H](n2cnc3c(NCc4ccc(O)cc4)ncnc32)[C@H](O)[C@@H]1O [4-hydroxybenzylamino, 6-(4-hydroxybenzylamino)purine riboside]	> 167 µM	> 167 µM	> 167 µM	39.7 µM	> 167 µM	> 167 µM	9.5 µM						
Cc1ccc(CNc2ncnc3c2ncn3[C@@H]2O[C@H](CO)[C@@H](O)[C@H]2O)cc1 [4-methylbenzylamino, 6-(4-methylbenzylamino)purine riboside]	> 167 µM		> 167 µM	> 167 µM	> 167 µM	> 167 µM	> 167 µM	10^−4 mol · l^−1	55 ± 5%	10^−5 mol · l^−1	32 ± 7%	95 ± 6%	10^−6 mol · l^−1
OC[C@H]1O[C@@H](n2cnc3c(NCc4cccc(Cl)c4O)nc(Cl)nc32)[C@H](O)[C@@H]1O [R2 = Cl, 2-hydroxy-3-chlorobenzylamino]	14 µM	118 µM	> 167 µM	0.2 µM	> 167 µM	10 µM	0.1 µM						
COc1cccc(CNc2nc(Cl)nc3c2ncn3[C@@H]2O[C@H](CO)[C@@H](O)[C@H]2O)c1O [R2 = Cl, 2-hydroxy-3-methoxybenzylamino]	23 µM	140 µM	> 167 µM	0.2 µM	> 167 µM	17 µM	0.1 µM						
OC[C@H]1O[C@@H](n2cnc3c(NCc4ccccc4O)nc(Cl)nc32)[C@H](O)[C@@H]1O [R2 = Cl, 2-hydroxybenzylamino]	10.5 µM	> 167 µM	35.1 µM	0.56 µM	2.5 µM	75 µM	0.38 µM						
COc1ccccc1CNc1nc(Cl)nc2c1ncn2C1OC(CO)C(O)C1O (stereo not drawn) [R2 = Cl, 2-methoxyxybenzylamino]	> 167 µM	> 167 µM	> 167 µM	2.7 µM	15.3 µM	14.5 µM	1.5 µM						
OC[C@H]1O[C@@H](n2cnc3c(NCc4cccc(F)c4)nc(Cl)nc32)[C@H](O)[C@@H]1O [R2 = Cl, 3-fluorobenzylamino]	16 µM	16 µM	> 167 µM	3 µM	> 167 µM	5.3 µM	0.9 µM						
OC[C@H]1O[C@@H](n2cnc3c(NCc4cccc(O)c4)nc(Cl)nc32)[C@H](O)[C@@H]1O [R2 = Cl, 3-hydroxybenzylamino]	> 167 µM	> 167 µM	> 167 µM	47.8 µM	> 167 µM	> 167 µM	15.9 µM						
COc1cccc(CNc2nc(Cl)nc3c2ncn3[C@@H]2O[C@H](CO)[C@@H](O)[C@H]2O)c1 [R2 = Cl, 3-methoxyxybenzylamino, 2-chloro-6-(3-methoxybenzylamino)purine riboside]	> 167 µM	> 167 µM	> 167 µM	6.5 µM	> 167 µM	> 167 µM	4.1 µM						
